Measured values taken from patent US4160095A, “7,8-Didehydro-PGI1 amides” (The Upjohn Company, priority 1978, dated 1979).

Tested on: endoperoxide cyclooxygenase (PG synthetase)
Experiment: Inhibition of oxygen uptake in the conversion of unsaturated fatty acid to prostaglandin endoperoxides (cyclooxygenase / PG synthetase inhibition, standard in vitro laboratory test)
Format: biochemical
Source text: The novel prostacyclin analogs disclosed herein are all inhibitors of endoperoxide cyclooxygenase, an enzyme which converts unsaturated fatty acids (e.g., arachadonic acid) to prostaglandin endoperoxide intermediate (e.g., PGH2). The inhibition of this enzyme (also known as PG synthetase) is established as a standard in vitro laboratory test which measures oxygen uptake in the conversion of the unsaturated fatty acid to the endoperoxides, e.g., [drawing 22]
The efficacy of the novel prostacyclin analogs herein as inhibitors of cyclooxygenase (PG synthetase) is indicated in the following comparison between 2-(acetylozy)benzoic acid (aspirin) and 7,8-didehydro-6β-PGI1, methyl ester:
For further description of PG synthetase inhibition, see Vane, Nature New Biology, 231-232 (1971) and Takeguchi, et al., Prostaglandins 2:169 (1972).

Row | SMILES | Percent inhibition of Oxygen Uptake (Concentration 5 × 10^-4 M) | Percent inhibition of Oxygen Uptake (Concentration 5 × 10^-5 M, result in words)
1 | CCCCC[C@H](O)/C=C/[C@@H]1C2=C[C@H](CCCCC(=O)OC)O[C@H]2C[C@H]1O [7,8-Didehydro-6β-PGI methyl ester, 7,8-didehydro-6β-PGI1, methyl ester] | 46% | 
2 | CC(=O)Oc1ccccc1C(=O)O [2-(Acetyloxy)-benzoic acid, 2-(acetyloxy)benzoic acid] | 100% | Inactive
